In test [1] the test system is WT CXCR4 and CXCR4^WHIM variants. Nature of the test: AKT activation assay (phosphoflow p-S473 AKT), K562 cells with stable CXCR4 expression. It counts as cell-based, human. The following applies: 40 nM, 200 nM or 1 µM mavorixafor, 10 nM CXCL12 for 5 min. On the procedure: (§1) Stable K562 clones expressing CXCR4 or Jurkat cells were seeded in starvation medium in 96-well plates overnight. After treatment, the cells were fixed with fixation solution (eBioscience, Thermo Fisher Scientific, Waltham, Massachusetts, USA) for 10 min at room temperature, then permeabilized for 5 min with ice-cold methanol on ice followed by a washing step with wash/permeabilization solution (eBioscience, Thermo Fisher Scientific, Waltham, Massachusetts, USA). Cells were then stained with Alexa Fluor 647 Mouse Anti-ERK1/2 (Product code 612593, pT202/pY204, 1/10 dilution, BD Biosciences) and Alexa Fluor 488 Mouse anti-Akt (Product code 560404, pS473, 1/10 dilution, BD Biosciences) for 1 h at room temperature in the dark. Cells were then washed 2 times in wash/permeabilization solution and resuspended in flow buffer (HBSS with Ca^2+ and Mg^2+ + 0.1% BSA + 20 mM HEPES pH 7.4). Samples were measured via flow cytometry (CytoFLEX Flow Cytometer) and analyzed in FCS Express software. After gating cells based on the FCS/SSC, MFI of the respective staining was exported for further analysis.

For test [2], the target named is CXCR4 (WT/WT, RX/WT, RX/RX Jurkat cells) (Homo sapiens, UniProt P61073). Nature of the test: ERK activation assay (phosphoflow), all Jurkat cell lines tested. Conditions: 40 nM, 200 nM or 1 µM mavorixafor, 10 nM CXCL12 for 5 min. It counts as cell-based. On the procedure: as §1
The next test concerns the target all CXCR4^WHIM variants (Homo sapiens, UniProt P61073). Nature of the test: Ca2+ mobilization assay, K562 cells, pooled over variants. It counts as cell-based. Conditions: K562, read-out: Emax of mavorixafor, Ca2+ mobilization, range over variants. On the procedure:
Stable K562 clones expressing CXCR4 (1 × 10^5 cells/well) were seeded in black 96-well plates with transparent bottom coated with poly-L-lysine (BioCoat®, Corning) and serum-starved for 24 h. Medium was removed and cells were loaded with 100 µl of fluo-4 AM (3 µM, Invitrogen) dye solution for 45 min at 37 °C. Dye solution was prepared by diluting fluo-4 powder in DMSO + 10% Pluronic F127 (Thermo Fisher Scientific, Waltham, Massachusetts, USA) to 3 mM and then preparing the final dilution in assay buffer (HBSS with Ca^2+ and Mg^2+, 20 mM HEPES, 0.375 g/l NaHCO3, 0.1% BSA + 0.77 g/L probenecid [Thermo Fisher Scientific]). Subsequently, 100 µl of assay buffer alone or assay buffer with compound dilutions was added and the plates were equilibrated in the plate reader for an additional 20 min at 37 °C. […] Raw traces were analyzed in SoftMax Pro 7 Software (Molecular Devices). The arbitrary units were calculated as the difference between maximal and minimal signal after treatment injection, normalized to the baseline signal before injection. Maximal effect (Emax) and half-maximal effective and inhibitory concentrations (EC50 and IC50, respectively) were calculated in Prism (GraphPad Software, San Diego, California, USA).
On the technique in general: Calcium assays in cells follow changes in intracellular calcium, usually with a dye or a luminescent sensor.

Test [3] concerns WT CXCR4 and CXCR4^WHIM variants. Nature of the test: ERK activation assay (phosphoflow p-T202/Y204 ERK), K562 cells with stable CXCR4 expression. It counts as cell-based, human. The following applies: 40 nM, 200 nM or 1 µM mavorixafor, 10 nM CXCL12 for 5 min. On the procedure: as §1
Test [4] deals with T1, R334X/WT CXCR4 (RX/WT Jurkat cells) (Homo sapiens, UniProt P61073).
T1 construct: cells endogenously expressing WT, R334X/WT or R334X/R334X CXCR4 at similar levels; endogenous in cells; host or cells: Jurkat E6-1 clone B2 (CRISPR-Cas9 edited, made at Applied StemCell)
Nature of the test: ERK activation assay (phosphoflow p-T202/Y204 ERK), Jurkat cells. Conditions: 10 nM CXCL12 for 5 min. It counts as cell-based. On the procedure:
as §1

Test [5] concerns the target T2, R334X/R334X CXCR4 (RX/RX Jurkat cells) (Homo sapiens, UniProt P61073).
T2 construct: a cellular model of homozygous and heterozygous R334X CXCR4 in an endogenous locus; host or cells: Jurkat (E6-1, ATCC), CRISPR-Cas9 clones A3 and B5 (RX/RX)
The description is as above. Conditions: 10 nM CXCL12 for 5 min. It counts as cell-based. On the procedure:
as §1

Test [6] has as its target CXCR4 (WT/WT, RX/WT, RX/RX) (Homo sapiens, UniProt P61073). Nature of the test: Ligand binding inhibition assay (AF647-CXCL12), Jurkat cells, across all cell lines.
Procedure: Jurkat cells were washed once with assay buffer (HBSS + 20 mM HEPES buffer +0.2% BSA, pH 7.4) and then incubated for 15 min at room temperature with test compound diluted in assay buffer at dose-dependent concentrations. […] The cells were incubated for 30 min at room temperature. Thereafter, the cells were washed twice in assay buffer, fixed with 1% paraformaldehyde in PBS, and analyzed by flow cytometry (Cytoflex). […] The percentage of inhibition was calculated according to the formula: [1-((MFI-MFINC)/(MFIPC-MFINC))]*100 where MFI is the mean fluorescence intensity of cells in the presence of an inhibitor, MFINC is mean fluorescence intensity of cells in the absence of the ligand and MFIPC is mean fluorescence intensity of cells in the presence of the ligand alone.
For another test, the target named is T3, CXCR4 E343X (Homo sapiens, UniProt P61073).
T3 construct: expressed in transfected cells; host or cells: K562
Nature of the test: Ca2+ mobilization assay, K562 cells with stable CXCR4 expression. The test is classed as cell-based. Conditions: K562, read-out: Emax (% inhibition) of mavorixafor, Ca2+ mobilization. On the procedure:
(§2) Stable K562 clones expressing CXCR4 (1 × 10^5 cells/well) were seeded in black 96-well plates with transparent bottom coated with poly-L-lysine (BioCoat®, Corning) and serum-starved for 24 h. Medium was removed and cells were loaded with 100 µl of fluo-4 AM (3 µM, Invitrogen) dye solution for 45 min at 37 °C. Dye solution was prepared by diluting fluo-4 powder in DMSO + 10% Pluronic F127 (Thermo Fisher Scientific, Waltham, Massachusetts, USA) to 3 mM and then preparing the final dilution in assay buffer (HBSS with Ca^2+ and Mg^2+, 20 mM HEPES, 0.375 g/l NaHCO3, 0.1% BSA + 0.77 g/L probenecid [Thermo Fisher Scientific]). Subsequently, 100 µl of assay buffer alone or assay buffer with compound dilutions was added and the plates were equilibrated in the plate reader for an additional 20 min at 37 °C. Jurkat cells (3 × 10^5 cells/well) were incubated with the Screen Quest Calbryte-520 Probenecid-Free and Wash-Free Calcium Assay Kit (AAT Bioquest, Sunnyvale, California, USA) according to manufacturer’s instructions. […] Raw traces were analyzed in SoftMax Pro 7 Software (Molecular Devices). The arbitrary units were calculated as the difference between maximal and minimal signal after treatment injection, normalized to the baseline signal before injection. Maximal effect (Emax) and half-maximal effective and inhibitory concentrations (EC50 and IC50, respectively) were calculated in Prism (GraphPad Software, San Diego, California, USA).

The next test addresses T4, CXCR4 S339C fs*4 (Homo sapiens, UniProt P61073).
T4 construct: expressed in transfected cells; host or cells: K562
Described as above. The test is classed as cell-based. The following applies: K562, read-out: Emax (% inhibition) of mavorixafor, Ca2+ mobilization. On the procedure:
as §2

For another test, the target named is T5, CXCR4 S339F fs*6 (Homo sapiens, UniProt P61073).
T5 construct: expressed in transfected cells; host or cells: K562
The test is described as above. The test is classed as cell-based. Conditions: K562, read-out: Emax (% inhibition) of mavorixafor, Ca2+ mobilization. On the procedure: as §2

A further test concerns the target T6, CXCR4 T318P fs*3 (Homo sapiens, UniProt P61073).
T6 construct: expressed in transfected cells; host or cells: K562
The test is described as above. The following applies: K562, read-out: Emax (% inhibition) of mavorixafor, Ca2+ mobilization. The test is classed as cell-based. On the procedure: as §2

The target in a further test is T7, CXCR4 S341P fs*25 (Homo sapiens, UniProt P61073).
T7 construct: expressed in transfected cells; host or cells: K562
The description is as above. It counts as cell-based. Conditions: K562, read-out: Emax (% inhibition) of mavorixafor, Ca2+ mobilization. On the procedure: as §2

The next test concerns the target T8, CXCR4 E343K (Homo sapiens, UniProt P61073, E343K).
T8 construct: expressed in transfected cells; host or cells: K562
The test is described as above. It counts as cell-based. Conditions: K562, read-out: Emax (% inhibition) of mavorixafor, Ca2+ mobilization. On the procedure:
as §2

Another test concerns the target T9, CXCR4 S319C fs*24 (Homo sapiens, UniProt P61073).
T9 construct: expressed in transfected cells; host or cells: K562
The description is as above. The test is classed as cell-based. The following applies: K562, read-out: Emax (% inhibition) of mavorixafor, Ca2+ mobilization. On the procedure:
as §2

In another test the target is T10, CXCR4 V320E fs*23 (Homo sapiens, UniProt P61073).
T10 construct: expressed in transfected cells; host or cells: K562
The test is described as above. Conditions: K562, read-out: Emax (% inhibition) of mavorixafor, Ca2+ mobilization. It counts as cell-based. On the procedure: as §2

The target in the next test is T11, WT CXCR4 (Homo sapiens, UniProt P61073).
T11 construct: cloned into pcDNA3.1(Hygro+) via NheI/EcoRV to give pcDNA3.1_CXCR4; expressed in transfected cells; host or cells: K562
Described as above. The test is classed as cell-based. Conditions: K562, read-out: Emax (% inhibition) of mavorixafor, Ca2+ mobilization. On the procedure: as §2

The target in another test is T12, CXCR4 S324V fs*20 (Homo sapiens, UniProt P61073).
T12 construct: expressed in transfected cells; host or cells: K562
Described as above. The test is classed as cell-based. The following applies: K562, read-out: Emax (% inhibition) of mavorixafor, Ca2+ mobilization. On the procedure: as §2

For the next test, the target named is T13, CXCR4 S338X (Homo sapiens, UniProt P61073).
T13 construct: expressed in transfected cells; host or cells: K562
The description is as above. The following applies: K562, read-out: Emax (% inhibition) of mavorixafor, Ca2+ mobilization. It counts as cell-based. On the procedure:
as §2

A further test concerns the target T14, CXCR4 R334X (Homo sapiens, UniProt P61073).
T14 construct: expressed in transfected cells; host or cells: K562
The description is as above. It counts as cell-based. Conditions: K562, read-out: Emax (% inhibition) of mavorixafor, Ca2+ mobilization. On the procedure:
as §2

The target in the next test is T15, CXCR4 G336X (Homo sapiens, UniProt P61073).
T15 construct: expressed in transfected cells; host or cells: K562
Described as above. It counts as cell-based. The following applies: K562, read-out: Emax (% inhibition) of mavorixafor, Ca2+ mobilization. On the procedure: as §2

The next test deals with T16, CXCR4 L329Q fs*13 (Homo sapiens, UniProt P61073).
T16 construct: expressed in transfected cells; host or cells: K562
The test is described as above. The test is classed as cell-based. The following applies: K562, read-out: Emax (% inhibition) of mavorixafor, Ca2+ mobilization. On the procedure: as §2

Each structure is given as a SMILES string.

T8 sequence (P61073 whole entry E343K): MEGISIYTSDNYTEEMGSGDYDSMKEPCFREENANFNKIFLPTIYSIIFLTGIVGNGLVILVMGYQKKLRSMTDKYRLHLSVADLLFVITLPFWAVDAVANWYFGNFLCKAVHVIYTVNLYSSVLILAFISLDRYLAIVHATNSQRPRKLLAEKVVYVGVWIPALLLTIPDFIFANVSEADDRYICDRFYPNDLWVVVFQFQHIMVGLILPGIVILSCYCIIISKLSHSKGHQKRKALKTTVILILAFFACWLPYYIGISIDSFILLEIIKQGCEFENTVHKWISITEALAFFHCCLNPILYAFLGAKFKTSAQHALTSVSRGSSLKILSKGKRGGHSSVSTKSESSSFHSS
T3 sequence (P61073 1-342 limits assumed): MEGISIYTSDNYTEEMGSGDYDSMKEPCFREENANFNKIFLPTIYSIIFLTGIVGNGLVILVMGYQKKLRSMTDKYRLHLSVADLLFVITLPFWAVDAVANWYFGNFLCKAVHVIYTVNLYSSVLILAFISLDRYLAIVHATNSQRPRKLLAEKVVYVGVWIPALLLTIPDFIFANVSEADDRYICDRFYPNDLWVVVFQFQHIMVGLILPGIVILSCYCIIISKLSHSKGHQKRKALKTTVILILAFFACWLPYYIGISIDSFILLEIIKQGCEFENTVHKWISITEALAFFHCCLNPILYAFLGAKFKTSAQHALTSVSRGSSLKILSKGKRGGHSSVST
T6 sequence (P61073 with tags, fused parts or gaps, stated change not applied): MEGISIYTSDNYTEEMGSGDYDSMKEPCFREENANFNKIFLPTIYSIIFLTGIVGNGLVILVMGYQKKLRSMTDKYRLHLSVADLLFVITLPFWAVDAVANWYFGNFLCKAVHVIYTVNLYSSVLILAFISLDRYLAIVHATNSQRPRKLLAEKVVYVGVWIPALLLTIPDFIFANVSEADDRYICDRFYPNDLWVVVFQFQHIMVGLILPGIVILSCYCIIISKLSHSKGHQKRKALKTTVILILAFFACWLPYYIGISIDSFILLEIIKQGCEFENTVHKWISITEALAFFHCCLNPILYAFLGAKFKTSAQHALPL
T7 sequence (P61073 with tags, fused parts or gaps, stated change not applied): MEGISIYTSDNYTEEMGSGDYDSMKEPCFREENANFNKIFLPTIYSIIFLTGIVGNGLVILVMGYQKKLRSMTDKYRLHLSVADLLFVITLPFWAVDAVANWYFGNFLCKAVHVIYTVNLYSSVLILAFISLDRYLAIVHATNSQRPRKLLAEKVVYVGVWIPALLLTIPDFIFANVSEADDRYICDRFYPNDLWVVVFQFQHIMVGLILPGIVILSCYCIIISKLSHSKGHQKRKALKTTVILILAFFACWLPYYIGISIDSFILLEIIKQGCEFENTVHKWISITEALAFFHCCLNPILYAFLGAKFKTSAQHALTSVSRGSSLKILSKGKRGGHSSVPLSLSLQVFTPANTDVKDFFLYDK
T13 sequence (P61073 1-337 limits assumed): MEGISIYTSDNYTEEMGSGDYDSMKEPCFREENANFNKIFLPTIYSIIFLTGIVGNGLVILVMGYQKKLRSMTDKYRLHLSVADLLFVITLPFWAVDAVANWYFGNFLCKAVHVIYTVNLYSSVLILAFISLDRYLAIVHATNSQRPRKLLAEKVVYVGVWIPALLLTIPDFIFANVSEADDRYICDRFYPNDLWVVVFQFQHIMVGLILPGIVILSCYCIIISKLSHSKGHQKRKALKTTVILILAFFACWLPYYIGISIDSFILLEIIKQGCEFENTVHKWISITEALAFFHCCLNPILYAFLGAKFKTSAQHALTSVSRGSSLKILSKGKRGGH
T15 sequence (P61073 1-335 limits assumed): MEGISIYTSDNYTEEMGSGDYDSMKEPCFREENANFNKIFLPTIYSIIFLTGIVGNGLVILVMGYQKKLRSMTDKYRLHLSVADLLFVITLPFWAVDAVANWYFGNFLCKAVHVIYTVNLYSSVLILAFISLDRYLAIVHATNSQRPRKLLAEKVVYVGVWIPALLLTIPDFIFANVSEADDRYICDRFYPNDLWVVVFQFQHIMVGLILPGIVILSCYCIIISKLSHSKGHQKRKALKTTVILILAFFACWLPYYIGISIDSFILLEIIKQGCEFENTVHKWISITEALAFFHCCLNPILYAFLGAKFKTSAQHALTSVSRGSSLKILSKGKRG
T16 sequence (P61073 with tags, fused parts or gaps, stated change not applied): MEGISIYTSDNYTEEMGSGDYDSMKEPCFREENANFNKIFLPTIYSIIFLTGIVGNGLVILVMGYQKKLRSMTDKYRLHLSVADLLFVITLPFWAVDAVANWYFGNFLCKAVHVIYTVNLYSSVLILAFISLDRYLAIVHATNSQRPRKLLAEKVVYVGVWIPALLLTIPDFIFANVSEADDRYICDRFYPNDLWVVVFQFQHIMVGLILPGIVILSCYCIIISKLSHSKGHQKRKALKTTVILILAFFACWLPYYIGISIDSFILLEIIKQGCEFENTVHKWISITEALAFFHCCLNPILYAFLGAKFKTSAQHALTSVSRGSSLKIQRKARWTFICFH
T4 sequence (P61073 with tags, fused parts or gaps, stated change not applied): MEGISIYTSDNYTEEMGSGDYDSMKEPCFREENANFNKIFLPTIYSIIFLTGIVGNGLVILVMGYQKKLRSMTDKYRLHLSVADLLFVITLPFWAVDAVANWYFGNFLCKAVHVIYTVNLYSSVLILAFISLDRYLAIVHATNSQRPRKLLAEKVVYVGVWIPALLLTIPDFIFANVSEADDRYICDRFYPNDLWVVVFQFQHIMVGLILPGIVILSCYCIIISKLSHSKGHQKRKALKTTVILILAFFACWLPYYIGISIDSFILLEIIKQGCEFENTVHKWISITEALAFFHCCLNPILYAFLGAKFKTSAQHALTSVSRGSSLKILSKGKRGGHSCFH
T12 sequence (P61073 with tags, fused parts or gaps, stated change not applied): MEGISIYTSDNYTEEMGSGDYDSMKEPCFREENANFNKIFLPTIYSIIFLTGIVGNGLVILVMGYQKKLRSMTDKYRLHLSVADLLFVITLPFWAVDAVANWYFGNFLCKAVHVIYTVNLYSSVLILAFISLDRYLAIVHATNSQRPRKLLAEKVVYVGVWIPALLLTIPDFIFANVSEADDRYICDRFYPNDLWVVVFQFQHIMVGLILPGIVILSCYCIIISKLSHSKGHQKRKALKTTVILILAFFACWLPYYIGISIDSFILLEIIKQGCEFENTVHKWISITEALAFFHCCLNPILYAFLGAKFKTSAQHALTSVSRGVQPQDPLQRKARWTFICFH
Chain of CXCR4 (WT/WT, RX/WT, RX/RX Jurkat cells) (P61073 1-333 limits assumed): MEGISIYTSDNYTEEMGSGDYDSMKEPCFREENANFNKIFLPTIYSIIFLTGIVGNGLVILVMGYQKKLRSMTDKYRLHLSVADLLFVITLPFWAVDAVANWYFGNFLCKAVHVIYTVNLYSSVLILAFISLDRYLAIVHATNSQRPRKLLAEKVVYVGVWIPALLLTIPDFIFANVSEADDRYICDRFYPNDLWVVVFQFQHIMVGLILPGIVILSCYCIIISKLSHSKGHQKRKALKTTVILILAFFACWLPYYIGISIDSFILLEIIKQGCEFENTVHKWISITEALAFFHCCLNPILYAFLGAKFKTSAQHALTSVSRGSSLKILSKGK
T1 sequence (P61073 1-333 limits assumed): as above
T1 sequence (P61073 whole entry): as the sequence (P61073 whole entry E343K) above, with K343E counted along it
Chain of CXCR4 (WT/WT, RX/WT, RX/RX) (P61073 1-333 limits assumed): as the sequence (P61073 1-333 limits assumed) above
T2 sequence (P61073 1-333 limits assumed): as above
T14 sequence (P61073 1-333 limits assumed): as above
T9 sequence (P61073 with tags, fused parts or gaps, stated change not applied): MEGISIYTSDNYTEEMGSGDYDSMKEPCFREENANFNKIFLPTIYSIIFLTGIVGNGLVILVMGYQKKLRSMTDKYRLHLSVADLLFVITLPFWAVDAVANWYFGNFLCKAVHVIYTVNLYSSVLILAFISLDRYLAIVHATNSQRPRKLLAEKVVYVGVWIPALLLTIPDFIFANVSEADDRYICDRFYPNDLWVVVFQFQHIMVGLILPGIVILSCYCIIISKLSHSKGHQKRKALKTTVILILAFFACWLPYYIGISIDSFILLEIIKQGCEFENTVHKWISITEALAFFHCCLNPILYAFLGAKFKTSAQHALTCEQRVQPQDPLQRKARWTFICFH
T11 sequence (P61073 whole entry): as the sequence (P61073 whole entry E343K) above, with K343E counted along it
T5 sequence (P61073 with tags, fused parts or gaps, stated change not applied): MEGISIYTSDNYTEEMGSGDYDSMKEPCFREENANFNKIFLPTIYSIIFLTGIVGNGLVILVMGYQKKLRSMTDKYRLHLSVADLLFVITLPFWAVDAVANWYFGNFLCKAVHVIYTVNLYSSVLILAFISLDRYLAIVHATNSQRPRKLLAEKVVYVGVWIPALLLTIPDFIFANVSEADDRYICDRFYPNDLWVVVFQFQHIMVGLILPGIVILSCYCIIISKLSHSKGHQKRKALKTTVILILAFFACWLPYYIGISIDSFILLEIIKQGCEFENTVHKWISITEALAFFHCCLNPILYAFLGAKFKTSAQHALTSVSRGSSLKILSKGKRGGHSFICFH
T10 sequence (P61073 with tags, fused parts or gaps, stated change not applied): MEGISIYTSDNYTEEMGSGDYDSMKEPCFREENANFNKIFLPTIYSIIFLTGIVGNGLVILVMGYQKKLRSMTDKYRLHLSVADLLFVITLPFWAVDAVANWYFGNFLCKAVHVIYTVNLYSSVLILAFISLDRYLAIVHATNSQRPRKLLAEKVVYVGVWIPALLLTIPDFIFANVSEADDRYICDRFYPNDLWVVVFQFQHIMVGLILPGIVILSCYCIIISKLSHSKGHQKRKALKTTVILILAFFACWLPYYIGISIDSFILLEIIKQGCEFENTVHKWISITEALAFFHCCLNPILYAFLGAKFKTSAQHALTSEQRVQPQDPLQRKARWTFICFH

As a reminder, the Emax is the greatest response seen or fitted, relative to the assay's reference. With `NCCCCN(Cc1nc2ccccc2[nH]1)[C@H]1CCCc2cccnc21` [mavorixafor], the “Effect on CXCL12-dependent AKT activation” value in [1] was “inhibited”. Besides, the “Effect on CXCL12-stimulated ERK activation” value in [2] is reported as “inhibited”. In addition, the maximal response (Emax) on all CXCR4^WHIM variants is 51 to 90%; at CXCR4 E343X, 90%; at CXCR4 S339C fs*4, 77%; on CXCR4 S339F fs*6, 59%; at CXCR4 T318P fs*3, 88%; on CXCR4 S341P fs*25 it was 57%. Moreover, the Emax on CXCR4 E343K was 66%; at CXCR4 S319C fs*24, 76%; on CXCR4 V320E fs*23, 65%; at WT CXCR4, 84%; at CXCR4 S324V fs*20, 58%; on CXCR4 S338X, 89%. The Emax at CXCR4 R334X came to 72%; at CXCR4 G336X, 82%; at CXCR4 L329Q fs*13, 51%. For the same compound, the “Effect on CXCL12-dependent ERK activation” value in test [3] is given as “inhibited”. The figures for the “Concentration that normalized the hyperactive ERK signaling” value in test [4] and in test [5] were 40 nM and 200 nM, respectively. In test [6], the “Efficacy of inhibition of CXCL12 binding to CXCR4” value came out at 100%.

These data come from paper PMC9519442, “Genotype–phenotype correlations in WHIM syndrome: a systematic characterization of CXCR4^WHIM variants” (Genes and Immunity, 2022).
